Laboratory results published in EP4803080A1, “METHOD FOR TREATING LEUKEMIA” (Shenzhen TargetRx Co., Ltd., priority 2023, dated 2025).

System: chronic phase (CP) chronic myeloid leukemia (CML)
Test: Phase I dose escalation and dose expansion clinical trial: efficacy in CML-CP subjects
Assay type: in vivo, humans
From the text: This study is a single-arm, open-label, dose-escalation and dose-expansion Phase I clinical trial.
The dose-escalation phase of this trial consists of about 8 dose groups, with oral administration under fasting conditions. Subjects in all dose groups will receive a single dose on Day 1 (D1), followed by pharmacokinetic (PK) and tolerability observations. […] After entering the multiple-dose period, subjects in the first dose group will initially receive twice-daily (BID) dosing (if PK data from the single-dose period are available, the dosing frequency during the multiple-dose period may be adjusted based on the PK data). The dosing frequency for subjects in subsequent dose groups after entering the multiple-dose period will be determined based on available PK and tolerability data. Throughout the trial, dosing frequency for all subjects may be adjusted based on continuously updated safety and PK data.
A continuous reassessment method (CRM) based on the principle of the escalation with overdose control (EWOC) design will be used to recommend the next specific dose for each dose escalation, thereby completing dose escalation and determining the maximum tolerated dose (MTD). If both the investigator and sponsor believe that higher dose groups may offer better efficacy and manageable safety, the EWOC-based CRM method may be used to explore higher doses. All enrolled subjects will receive long-term treatment with the test drug and undergo evaluations for safety, tolerability, and preliminary efficacy.
After obtaining certain research data from the dose-escalation phase, the investigator may comprehensively consider safety, efficacy, and other information to decide whether to enroll additional subjects at the MTD and/or lower dose levels to determine the recommended Phase II dose (RP2D). Two to four suitable dosing regimens will be selected for expansion in the target population (including subjects enrolled at the target dose levels during the escalation phase).
A total of 8 dose groups were established: 10 mg bid, 20 mg bid, 40 mg bid, 80 mg bid, 40 mg qd, 80 mg qd, 160 mg qd, and 240 mg qd.
The dose expansion phase was conducted in the following 3 cohorts: • Cohort 1: Subjects with chronic phase (CP) chronic myeloid leukemia (CML) who had previously received at least ≥2 different TKIs and were T315I-negative. A total of 3 dose groups were established: 40 mg qd, 80 mg qd, and 240 mg qd; • Cohort 2: Subjects with chronic phase (CP) chronic myeloid leukemia (CML) who have previously received ≥1 TKI and were T315I-positive. A total of 2 dose groups were established: 40 mg qd and 240 mg qd; • Cohort 3: Subjects with accelerated phase (AP) chronic myeloid leukemia (CML) who have previously received ≥1 TKI, regardless of T315I positivity. A total of 1 dose group was established: 240 mg qd.

[1] = CML-CP subjects previously treated with ponatinib, olverembatinib, asciminib, and/or HS-10382, as of June 2, 2024
[2] = CML-CP subjects, all doses, 58 evaluable, as of August 24, 2023
[3] = CML-CP subjects, all doses, as of August 24, 2023
[4] = CML-CP subjects, as of June 2, 2024
[5] = CML-CP, 10 mg BID, 2 evaluable subjects, as of August 24, 2023
[6] = CML-CP, 20 mg BID, 3 evaluable subjects, as of August 24, 2023
[7] = CML-CP, 40 mg BID, 1 evaluable subject, as of August 24, 2023
[8] = CML-CP, 40 mg QD, 15 evaluable subjects, as of August 24, 2023
[9] = CML-CP, 40 mg/day Total, 18 evaluable subjects, as of August 24, 2023
[10] = CML-CP, 80 mg BID, 3 evaluable subjects, as of August 24, 2023
[11] = CML-CP, 80 mg QD, 2 evaluable subjects, as of August 24, 2023
[12] = CML-CP, 80 mg/day Total, 3 evaluable subjects, as of August 24, 2023
[13] = CML-CP, 160 mg QD, 1 evaluable subject, as of August 24, 2023
[14] = CML-CP, 160 mg/day Total, 4 evaluable subjects, as of August 24, 2023
[15] = CML-CP, 240 mg QD, 31 evaluable subjects, as of August 24, 2023
[16] = CML-CP, Total, all dose groups, 58 evaluable subjects, as of August 24, 2023

With `O=C(Nc1ccc(OC(F)(F)Cl)cc1)c1cnc(N2CC[C@@H](F)C2)c(-c2cnccn2)c1` [Compound A, (R)-N-(4-(chlorodifluoromethoxy)phenyl)-6-(3-fluoropyrrolidin-1-yl)-5-(pyrazin-2-yl)nicotinamide] the “18-month cumulative incidence of CCyR” value [1] was 17%, the “18-month cumulative incidence of MCyR” value [1] was 32% and the CHR (CML-CP subjects, all doses, 35 evaluable, as of August 24, 2023) was 91.4%. The CCyR [2] was 34.5%, the MCyR [2] was 39.7% and the MMR (CML-CP subjects, all doses, 62 evaluable, as of August 24, 2023) was 16.1%. The “median time to CCyR” value [3] was 2.81 (2.76, 3.30) months, the “median time to MCyR” value [3] was 2.83 (2.76, 3.68) months and the “median time to MMR” value [3] was 2.81 (2.76, 5.49) months. The “CHR within 3 treatment cycles” value (CML-CP subjects, 49 evaluable, as of June 2, 2024) was 82%, the “18-month cumulative incidence rate for CCyR” value [4] was 40% and the “18-month cumulative incidence rate for MCyR” value [4] was 52%. For the same compound, the “18-month cumulative incidence rate for MMR” value [4] was 26%, the CHR (CML-CP, 10 mg BID, 0 evaluable subjects, as of August 24, 2023) was 0 n (%) and the CCyR [5] was 1 (50.0) n (%). For the same compound, the MCyR [5] was 2 (100) n (%), the MMR [5] was 1 (50.0) n (%) and the CHR (CML-CP, 20 mg BID, 2 evaluable subjects, as of August 24, 2023) was 2 (100) n (%). For the same compound, the CCyR [6] was 2 (66.7) n (%), the MCyR [6] was 2 (66.7) n (%) and the MMR [6] was 0 n (%). The CCyR [7] was 0 n (%), the CHR [7] was 1 (100) n (%) and the MCyR [7] was 0 n (%). For the same compound, the MMR [7] was 0 n (%), the CHR (CML-CP, 40 mg QD, 7 evaluable subjects, as of August 24, 2023) was 6 (85.7) n (%) and the CCyR [8] was 5 (33.3) n (%). For the same compound, the MCyR [8] was 5 (33.3) n (%), the MMR (CML-CP, 40 mg QD, 17 evaluable subjects, as of August 24, 2023) was 3 (17.6) n (%) and the CHR (CML-CP, 40 mg/day Total, 9 evaluable subjects, as of August 24, 2023) was 8 (88.9) n (%). The CCyR [9] was 7 (38.9) n (%), the MCyR [9] was 7 (38.9) n (%) and the MMR (CML-CP, 40 mg/day Total, 20 evaluable subjects, as of August 24, 2023) was 3 (15.0) n (%). For the same compound, the CHR (CML-CP, 80 mg BID, 2 evaluable subjects, as of August 24, 2023) was 2 (100) n (%), the CCyR [10] was 1 (33.3) n (%) and the MCyR [10] was 1 (33.3) n (%). The MMR [10] was 1 (33.3) n (%), the CCyR [11] was 1 (50.0) n (%) and the MCyR [11] was 1 (50.0) n (%). For the same compound, the MMR [11] was 0 n (%), the CHR (CML-CP, 80 mg QD, 3 evaluable subjects, as of August 24, 2023) was 3 (100) n (%) and the CCyR [12] was 1 (33.3) n (%). The MCyR [12] was 1 (33.3) n (%), the MMR [12] was 0 n (%) and the CHR (CML-CP, 80 mg/day Total, 4 evaluable subjects, as of August 24, 2023) was 4 (100) n (%). For the same compound, the CCyR [13] was 1 (100) n (%), the CHR [13] was 1 (100) n (%) and the MCyR [13] was 1 (100) n (%). For the same compound, the MMR [13] was 1 (100) n (%), the CHR (CML-CP, 160 mg/day Total, 3 evaluable subjects, as of August 24, 2023) was 3 (100) n (%) and the CCyR [14] was 2 (50.0) n (%). The MCyR [14] was 2 (50.0) n (%), the MMR [14] was 2 (50.0) n (%) and the CHR (CML-CP, 240 mg QD, 19 evaluable subjects, as of August 24, 2023) was 17 (89.5) n (%). The CCyR [15] was 9 (29.0) n (%), the MCyR [15] was 11 (35.5) n (%) and the MMR (CML-CP, 240 mg QD, 33 evaluable subjects, as of August 24, 2023) was 4 (12.1) n (%). For the same compound, the CHR (CML-CP, Total, all dose groups, 35 evaluable subjects, as of August 24, 2023) was 32 (91.4) n (%), the CCyR [16] was 20 (34.5) n (%) and the MCyR [16] was 23 (39.7) n (%). The MMR (CML-CP, Total, all dose groups, 62 evaluable subjects, as of August 24, 2023) was 10 (16.1) n (%).
